Laboratory results: paper PMC8247773, “Benzohydrazide and Phenylacetamide Scaffolds: New Putative ParE Inhibitors” (Frontiers in Bioengineering and Biotechnology, 2021)
Values after ≈ are worked out from the molar mass of the structure shown. Values joined by “and” are separate entries in the source; they are usually repeats but may differ in a detail not shown here. Equal entries are not always repeated.

Key:
[1] = test system: Escherichia coli (NCIM 2065); experiment: Antibacterial susceptibility test, microbroth dilution MIC; assay type: cell-based; conditions: E. Coli (NCIM 2065); mean ± SD
MRSA (NCIM 5021) [2] = experiment: as above; assay type: cell-based, methicillin-resistant Staphylococcus aureus; conditions: mean ± SD
MRSA (ATCC43300) [3] = experiment: as above; assay type: cell-based, methicillin-resistant Staphylococcus aureus; conditions: mean ± SD
[4] = test system: Escherichia coli (NCIM 2065); experiment: Minimum bactericidal concentration (MBC); assay type: cell-based; conditions: E. Coli (NCIM 2065); for MBC/MIC: ratio ≤2 bactericidal, ≥4 tolerance
Method: (§1) MBC can be defined as the minimum concentration of a compound required to kill the bacteria over a fixed period under precise conditions. […] Colonies were counted, and colony forming unit (CFU) per milliliter was calculated.

MRSA (ATCC43300) [5] = experiment: Minimum bactericidal concentration (MBC); assay type: cell-based, methicillin-resistant Staphylococcus aureus
Method: as §1

MRSA (NCIM 5021) [6] = experiment: Minimum bactericidal concentration (MBC); assay type: cell-based, methicillin-resistant Staphylococcus aureus
Method: as §1

E. coli ParE enzyme = target: T1, E. coli ParE enzyme (Escherichia coli, UniProt P20083); experiment: E. coli ParE ATPase enzyme inhibition assay (ProFoldin kit, malachite green); assay type: biochemical; conditions: ATPase activity, mean ± SD (n = 3)
T1 construct: purchased ProFoldin, Hudson, United States
T1 sequence (P20083 whole entry): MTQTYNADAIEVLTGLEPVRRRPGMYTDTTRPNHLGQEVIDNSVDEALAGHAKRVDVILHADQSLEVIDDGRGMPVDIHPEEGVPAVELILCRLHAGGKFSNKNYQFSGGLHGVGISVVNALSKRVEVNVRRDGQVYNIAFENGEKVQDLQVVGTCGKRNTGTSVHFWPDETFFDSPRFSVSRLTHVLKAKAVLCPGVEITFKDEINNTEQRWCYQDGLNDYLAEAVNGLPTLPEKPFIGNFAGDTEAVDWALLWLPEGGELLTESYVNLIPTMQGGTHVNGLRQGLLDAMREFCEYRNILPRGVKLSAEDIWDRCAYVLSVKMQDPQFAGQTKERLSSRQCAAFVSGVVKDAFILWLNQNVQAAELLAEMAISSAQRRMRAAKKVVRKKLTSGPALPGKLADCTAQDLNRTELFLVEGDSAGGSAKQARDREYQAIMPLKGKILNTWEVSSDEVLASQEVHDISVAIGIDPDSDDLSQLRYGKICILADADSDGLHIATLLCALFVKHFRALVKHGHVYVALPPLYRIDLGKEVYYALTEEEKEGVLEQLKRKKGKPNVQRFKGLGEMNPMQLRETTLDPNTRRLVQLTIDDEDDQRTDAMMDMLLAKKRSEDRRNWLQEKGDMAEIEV
T1 sequence (P0AFI2 whole entry, further chain): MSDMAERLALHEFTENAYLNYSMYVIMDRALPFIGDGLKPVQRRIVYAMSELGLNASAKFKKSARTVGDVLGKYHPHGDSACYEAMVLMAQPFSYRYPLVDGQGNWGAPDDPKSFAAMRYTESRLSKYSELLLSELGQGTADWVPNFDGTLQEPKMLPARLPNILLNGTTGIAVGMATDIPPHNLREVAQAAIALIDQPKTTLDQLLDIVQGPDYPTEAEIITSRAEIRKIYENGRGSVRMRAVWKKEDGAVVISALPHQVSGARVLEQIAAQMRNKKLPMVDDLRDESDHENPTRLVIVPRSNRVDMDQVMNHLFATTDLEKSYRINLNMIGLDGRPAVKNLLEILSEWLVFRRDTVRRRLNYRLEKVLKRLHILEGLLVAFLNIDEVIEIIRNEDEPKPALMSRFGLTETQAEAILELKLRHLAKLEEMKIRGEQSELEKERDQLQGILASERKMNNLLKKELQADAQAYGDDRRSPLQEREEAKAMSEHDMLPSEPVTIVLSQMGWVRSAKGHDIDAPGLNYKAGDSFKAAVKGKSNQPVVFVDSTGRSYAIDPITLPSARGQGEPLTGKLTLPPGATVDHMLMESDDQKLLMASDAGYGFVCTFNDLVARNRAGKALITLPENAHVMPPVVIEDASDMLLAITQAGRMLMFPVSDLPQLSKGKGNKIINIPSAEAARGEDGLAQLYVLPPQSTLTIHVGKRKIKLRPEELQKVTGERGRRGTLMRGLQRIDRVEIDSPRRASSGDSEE
Method: The assay was performed as per the standard protocol provided by the ProFoldin. […] ParE hydrolyzes ATP as the source of molecular energy to perform decatenation reactions. Fluoroquinolones and aminocoumarins usually block ATPase activity to hinder the biological activities of topoisomerase II. Thus, the topoisomerase ATPase assay can be used for high-throughput screening of topoisomerase inhibitors. The ATPase activity of the E. coli ParE enzyme was based on the detection of inorganic phosphate produced by the hydrolysis of ATP in the presence of DNA. The phosphate is detected using a microplate reader at an absorbance wavelength of 650 nm. The selected compounds were tested for the inhibition of ATPase activity of ParE enzyme. […] The reaction mixture was incubated for 1 h at 37°C and then quenched with 45 μL of Dye. Incubate for 5 min, and the absorbance was measured at 650 nm. The IC50 values were determined from the absorbance readings using no enzyme and no compound controls. They were calculated using the non-linear regression curve fit method.

[7] = test system: Klebsiella pneumonia (NCIM 2706); design: method as in Yele et al., 2020, 2021; conditions: ref Yele et al., 2020, 2021; cited from earlier work
[8] = test system: Pseudomonas aeruginosa (NCIM 2036); design: method as in Yele et al., 2020, 2021; conditions: ref Yele et al., 2020, 2021; cited from earlier work
[9] = test system: Escherichia coli (NCIM 2567); design: method as in Yele et al., 2020, 2021; conditions: ref Yele et al., 2020, 2021; cited from earlier work
[10] = test system: Salmonella typhi (NCIM 2501); design: method as in Yele et al., 2020, 2021; conditions: ref Yele et al., 2020, 2021; cited from earlier work
[11] = test system: Staphylococcus epidermis (NCIM 2493); design: method as in Yele et al., 2020, 2021; conditions: ref Yele et al., 2020, 2021; cited from earlier work
[12] = test system: Staphylococcus aureus (NCIM 5022); design: method as in Yele et al., 2020, 2021; conditions: ref Yele et al., 2020, 2021; cited from earlier work
[13] = test system: Bacillus subtilis (NCIM 2545); design: method as in Yele et al., 2020, 2021; conditions: ref Yele et al., 2020, 2021; cited from earlier work
[14] = test system: Mycobacterium tuberculosis (NCIM 2984); design: method as in Yele et al., 2020, 2021; conditions: ref Yele et al., 2020, 2021; cited from earlier work
Vero cells [15] = test system: Vero cells
Vero cells [16] = experiment: In vitro cytotoxicity MTT assay; conditions: CC50 Vero cells / IC50

Compound | Minimum inhibitory concentration [1] | Minimum inhibitory concentration (MRSA (NCIM 5021) [2]) [mg/L] | Minimum inhibitory concentration (MRSA (ATCC43300) [3]) [mg/L] | MBC [4] [mg/L] | MBC/MIC [4] | MBC (MRSA (ATCC43300) [5]) [mg/L] | MBC/MIC (MRSA (ATCC43300) [5]) | MBC (MRSA (NCIM 5021) [6]) [mg/L] | MBC/MIC (MRSA (NCIM 5021) [6]) | IC50 against E. coli ParE enzyme (E. coli ParE enzyme) [mg/L] | Minimum inhibitory concentration (MIC) K. p [7] | Minimum inhibitory concentration (MIC) P. a [8] | Minimum inhibitory concentration (MIC) E. c [9] | Minimum inhibitory concentration (MIC) S. t [10] | Minimum inhibitory concentration (MIC) S. e [11] | Minimum inhibitory concentration (MIC) S. a [12] | Minimum inhibitory concentration (MIC) B. s [13] | Minimum inhibitory concentration (MIC) M. t [14] | CC50 (Vero cells [15]) [mg/L] | SI (CC50/IC50) (Vero cells [16])
O=C(COc1ccccc1NC(=O)CCl)Nc1ccc(Cl)cc1 [Compound 2] | 1.01 ± 0.19 mg/L (≈ 2.86 µM) | 2.41 ± 0.65 (≈ 6.82 µM) | 1.34 ± 0.49 (≈ 3.79 µM) | 2.00 ± 0.01 (≈ 5.66 µM) | 2 | 2.71 ± 0.21 (≈ 7.67 µM) | 2 | 4.8 ± 0.21 (≈ 13.6 µM) | 2 | 2.33 (≈ 6.6 µM) | 2.95 | 2.59 | 2.45 | 2.56 | 0.92 | 0.69 | 0.72 | 4.52 | – | –
O=C(COc1ccccc1NC(=O)CCl)Nc1ccc([N+](=O)[O-])cc1 [Compound 1] | 0.72 mg/L and 0.72 ± 0.07 mg/L | 0.84 ± 0.13 (≈ 2.31 µM) | 0.99 ± 0.24 (≈ 2.72 µM) | 1.42 ± 0.02 (≈ 3.9 µM) | 2 | 0.99 ± 0.24 (≈ 2.72 µM) | 1 | 0.84 ± 0.13 (≈ 2.31 µM) | 1 | 0.99 ± 0.01 (≈ 2.72 µM) | 0.78 | 0.69 | 0.75 | – | 2.98 | 2.56 | 3.62 | 3.85 | 213.9002 (≈ 588 µM) | 216.0608
Cc1cccc([N+](=O)[O-])c1NC(=O)COc1ccccc1NC(=O)CCl [Compound 4] | 2.49 ± 0.31 mg/L (≈ 6.59 µM) | 2.69 ± 0.49 (≈ 7.12 µM) | 2.52 ± 0.37 (≈ 6.67 µM) | 4.71 ± 0.03 (≈ 12.5 µM) | 2 | 8.76 ± 0.21 (≈ 23.2 µM) | 3 | 8.00 ± 0.04 (≈ 21.2 µM) | 3 | 0.95 (≈ 2.51 µM) | 11.90 | 19.90 | 4.45 | – | 2.05 | 4.12 | 5.97 | 0.75 | 163.9911 (≈ 434 µM) | 169.0629
O=C(CCl)Nc1ccccc1OCC(=O)Nc1ccc([N+](=O)[O-])cc1[N+](=O)[O-] [Compound 7] | 0.83 ± 0.05 mg/L (≈ 2.03 µM) | 0.95 ± 0.06 (≈ 2.32 µM) | 0.85 ± 0.09 (≈ 2.08 µM) | 0.83 ± 0.1 (≈ 2.03 µM) | 1 | 0.85 ± 0.09 (≈ 2.08 µM) | 1 | 0.95 ± 0.06 (≈ 2.32 µM) | 1 | 0.95 ± 0.06 (≈ 2.32 µM) | 1.25 | 0.67 | 1.52 | – | 8.62 | 5.78 | 6.56 | 1.02 | 224.7306 (≈ 550 µM) | 236.5585
O=C(CSc1nc2ccccc2s1)Nc1ccc([N+](=O)[O-])cc1 [Compound 24] | 0.78 mg/L and 0.78 ± 0.08 mg/L | 0.81 ± 0.10 (≈ 2.35 µM) | 0.73 ± 0.12 (≈ 2.11 µM) | 0.78 ± 0.08 (≈ 2.26 µM) | 1 | 0.73 ± 0.12 (≈ 2.11 µM) | 1 | 0.81 ± 0.10 (≈ 2.35 µM) | 1 | – | 2.24 | 15.0 | 2.17 | – | 1.98 | 0.78 | 1.97 | 2.52 | 168.8089 (≈ 489 µM) | 351.6852
O=C(COc1ccccc1NC(=O)CCl)NNc1ccc([N+](=O)[O-])cc1[N+](=O)[O-] [Compound 17] | 3.41 ± 0.25 mg/L (≈ 8.05 µM) | 3.71 ± 0.15 (≈ 8.75 µM) | 3.23 ± 0.21 (≈ 7.62 µM) | 7.2 ± 0.7 (≈ 17 µM) | 2 | – | – | 7.46 ± 0.05 (≈ 17.6 µM) | 2 | 0.86 ± 0.12 (≈ 2.03 µM) | 1.26 | 0.98 | 1.25 | – | 3.56 | 2.38 | 4.89 | 0.98 | 150.8056 (≈ 356 µM) | 175.3553
O=C(COc1ccccc1NC(=O)CCl)NNC(=O)c1ccc([N+](=O)[O-])cc1 [Compound 14] | 4.14 ± 0.07 mg/L (≈ 10.2 µM) | 4.35 ± 0.09 (≈ 10.7 µM) | 0.94 ± 0.14 (≈ 2.31 µM) | – | 1 | 0.94 ± 0.14 (≈ 2.31 µM) | 1 | – | – | 0.36 ± 0.03 (≈ 0.885 µM) | 0.98 | 1.98 | 0.80 | – | 5.61 | 8.56 | 5.70 | 2.56 | 64.7605 (≈ 159 µM) | 179.8902
